According to patent US8124412B2, “Method of culturing conifer somatic embryos using S(+)-abscisic acid” (Cellfor Inc., priority 2005, dated 2012):

Columns and labels:
[1] = system: Douglas fir somatic embryos; assay: Douglas fir somatic embryogenesis: maturation, germination and conversion after culture on S-ABA or S,R-ABA; assay type: cell-based, Pseudotsuga menziesii (Douglas fir)
Protocol: The culture medium used for Douglas fir was TX medium (see Table 1) with the following additives: glutamine 100 mg/L, casein hydrolysate 100 mg/L, and pH 5.8. The following compounds were added into the basal medium for Douglas fir somatic embryo development at different stages:
1) Solid maintenance medium: 9 μM 2,4-D and 4.5 μM BA, gellan gum 0.28%, sucrose 1%.
2) Liquid maintenance and bulking-up medium: 9 μM 2,4-D and 4.5 μM BA, different carbon sources for experiments.
3) Liquid pre-treatment medium: 20 (first week) or 30 μM ABA (second week), 10% PEG4000 (first week) or PEG1500 (second week), different carbon sources as described in examples below.
4) Solid maturation medium consisted of three media all with 0.02% NH4NO3 and the following:
Medium I. 40 μM ABA, 10% PEG 1500, maltose 2.5%, gellan gum 0.6%
Medium II. 60 μM ABA, 10% PEG1500, maltose 2.5% and sucrose 1%, gellan gum 0.8%
Medium III. 70 μM ABA, 6% PEG1500, sucrose 6%, gellan gum 1%.
The culture was kept in darkness at 23° C. Embryogenic tissue was sub-cultured once every two weeks onto solid maintenance medium. […]
5) Germination. The cultures were germinated at room temperature for 2 to 3 weeks on TX medium (Table 1), 0.5% gellan gum, 1 g/L NH4NO3 after which the germinants were hand selected and placed in low-light for 1 week and high-light for 7 weeks then planted in miniplugs and evaluated after 14 weeks.

[2] = system: loblolly pine germinants/seedlings, line 76; assay: Loblolly pine merchantable miniplug seedlings in nursery after maturation treatments; assay type: in vivo, Pinus taeda (loblolly pine); details: line 76 (FIG. 5)
Protocol: The effect of the different kinds of ABA on the survival and vigour of germinants was investigated. The germinants were prepared as described above except that ABA in the maturation medium consisted of 95% and 98% purity S-ABA, which was used in the maturation medium at 60 and 120 μM concentration. The S,R-ABA (98% purity) was used at 60 and 120 μM concentration. Miniplug seedlings of merchantable quality were scored after 14 weeks in the nursery.

[3] = system: loblolly pine somatic embryos, line 76; assay: Loblolly pine: S-ABA concentration in preculture II medium and maturation medium; assay type: cell-based, Pinus taeda (loblolly pine); details: S-ABA 95% purity, line 76 (FIG. 6)
Protocol: The effect of S-ABA (95% purity) was tested in the loblolly pine pre-culture II medium followed by maturation medium. Somatic embryos of line 76 were cultured as described above; however, ABA was added to the pre-culture medium and maturation medium in the following treatments: […]

[4] = system: loblolly pine somatic embryos, line 76; assay: Loblolly pine somatic embryo maturation: plantable germinants per gram of tissue plated; assay type: cell-based, Pinus taeda (loblolly pine)
Protocol: The culture medium for loblolly pine was TX medium (see Table 1) with the following additives: Glutamine 2500 mg/L, casein hydrolysate 3000 mg/L, and pH 5.8. The following compounds were added into the basal medium for loblolly pine somatic embryo development at different stages:
1) Solid maintenance medium: 9 μM 2,4-D and 4.5 μM BA, gellan gum 0.3%, sucrose 1%, lactose 2%.
2) Liquid maintenance and bulking-up medium: 9 μM 2,4-D and 4.5 μM BA, 1% sucrose, 2% lactose.
3) Liquid pre-treatment medium: 1% sucrose, 2% lactose.
4) Preculture II medium. Lactose 2%, 1% sucrose
5) Solid maturation containing 1% gellan gum, and 2500 mg/L L-glutamine and 3000 mg/L casein hydrolysate, 3% sucrose. The maturation media contained different types of ABA and concentrations. S,R-ABA (98% purity) was tested at the previously determined optimum of 120 μM. S-ABA (90% purity) was tested at 60 μM and 120 μM. 0.3 grams of tissue were plated per petri-plate). Culture was for 18 weeks in the dark at room temperature. After, the embryos were desiccated for 1.5 hours in a stream of sterile air to a moisture content of less than 10%. Plates were stored at −28° C.
6) Germination. The filter papers with desiccated embryos attached were moved onto germination medium shown in Table 2, and cultured in the dark for 1 week then transferred to light. The numbers of germinants of suitable quality for planting were counted.

Row | SMILES | effect on maturation frequencies ([1]; Douglas fir, S-ABA compared with S,R-ABA) | conversion of embryos, increase compared to S,R-ABA ([1]; one Douglas fir cell line with low conversion potential, embryos cultured on S-ABA vs S,R-ABA (FIG. 3)) [fold] | mean % merchantable seedlings, rank among treatments ([2]; 60 μM 98% purity S-ABA, after 14 weeks in nursery) | merchantable seedlings, compared to the 60 μM S,R-ABA treatment ([2]; 120 μM S-ABA, after 14 weeks in nursery) | mean % merchantable seedlings, compared to the S,R-ABA treatments ([2]; all S-ABA treatments (95% and 98% purity, 60 and 120 μM), scored after 14 weeks in nursery) | gradual increase in S-ABA compared to constant ABA throughout development ([3]; 45 μM S-ABA in pre-culture medium to 90 μM in maturation medium) | 90 μM S-ABA maturation medium compared to 120 μM S-ABA maturation medium [3] | number of plantable germinants per gram of tissue plated, compared to 120 μM S,R-ABA ([4]; 60 μM S-ABA (90% purity) in maturation medium, loblolly line 76 (FIG. 4)) | number of plantable germinants, compared to 120 μM S,R-ABA ([4]; 120 μM S-ABA (90% purity) in maturation medium, loblolly line 76 (FIG. 4)) | optimum concentration in maturation medium ([4]; loblolly pine, S,R-ABA 98% purity, previously determined) [µM]
1 | CC1=CC(=O)CC(C)(C)[C@@]1(O)/C=C/C(C)=C\C(=O)O (mixture of isomers) [S-ABA, (+)-cis,trans-Abscisic Acid] | similar | 2.5 | significantly the is highest | more optimal | higher | superior | superior | significantly higher | double | –
2 | CC1=CC(=O)CC(C)(C)C1(O)/C=C/C(C)=C\C(=O)O (stereo not shown) [S,R-ABA, reference compound] | – | – | – | – | – | – | – | – | – | 120
